Test results from patent publication US7183276B2, “Azole compounds” (Takeda Pharmaceutical Company Limited, priority 2002, dated 2007).

melting point [°C] | SMILES
225 to 227 | NS(=O)(=O)c1ccc(CNC(=O)CCc2oc(-c3ccccc3)nc2-c2ccc(Cl)cc2)cc1 [Example 165, N-[4-(aminosulfonyl)benzyl]-3-[4-(4-chlorophenyl)-2-phenyl-5-oxazolyl]propionamide]
154 to 155 | CN(Cc1ccc(NC(=O)CCc2oc(-c3ccccc3)nc2-c2ccc(Cl)cc2)cc1)C1CCOCC1 [Example 94, 3-[4-(4-chlorophenyl)-2-phenyl-5-oxazolyl]-N-(4-{[N-methyl-N-(4-tetrahydropyranyl)amino]methyl}phenyl)propionamide]
219 to 221 | CNC(=O)Cc1ccc(NC(=O)CCc2oc(-n3cnc4ccccc43)nc2-c2ccc(Cl)cc2)cc1 [Example 143, 2-[4-({3-[2-(1H-benzimidazol-1-yl)-4-(4-chlorophenyl)-5-oxazolyl]propanoyl}amino)phenyl]-N-methylacetamide]
219 to 220 | CC(C)(C)c1ccc(NC(=O)CCc2oc(-n3cnc4ccccc43)nc2-c2ccc(Cl)cc2)cc1 [Example 117, 3-[2-(1H-benzimidazol-1-yl)-4-(4-chlorophenyl)-5-oxazolyl]-N-(4-tert-butylphenyl)propionamide]
98 to 99 | CCOP(=O)(Cc1ccc(NC(=O)CCc2oc(-n3cnc4ccccc43)nc2-c2cccc(Cl)c2)cc1)OCC
206 to 207 | O=C(CCc1oc(-n2cnc3ccccc32)nc1-c1ccc(Cl)cc1)Nc1cccc(CO)c1 [Example 108, 3-[2-(1H-benzimidazol-1-yl)-4-(4-chlorophenyl)-5-oxazolyl]-N-[3-(hydroxymethyl)phenyl]propionamide]
245 to 246 | N#CCc1ccc(NC(=O)Cc2sc(-n3cnc4ccccc43)nc2-c2ccc(Cl)cc2)cc1 [Example 219, 2-[2-(1H-benzimidazol-1-yl)-4-(4-chlorophenyl)-5-thiazolyl]-N-[4-(cyanomethyl)phenyl]acetamide]
155 to 156 | CCOP(=O)(OCC)C(F)(F)c1ccc(NC(=O)CCc2oc(-n3cnc4ccccc43)nc2-c2ccc(Cl)cc2)cc1
241 to 242 | Cc1ccc(CNC(=O)CCc2oc(-n3cnc4ccccc43)nc2-c2ccc(Cl)cc2)cc1 [Example 125, 3-[2-(1H-benzimidazol-1-yl)-4-(4-chlorophenyl)-5-oxazolyl]-N-(4-methylbenzyl)propionamide]
137 to 138 | CCOP(=O)(Cc1ccc(NC(=O)CCc2oc(Cl)nc2-c2ccc(Cl)cc2)cc1)OCC
240 to 241 | COc1ccc(NC(=O)CCc2oc(-n3cnc4ccccc43)nc2-c2ccc(Cl)cc2)cc1 [Example 114, 3-[2-(1H-benzimidazol-1-yl)-4-(4-chlorophenyl)-5-oxazolyl]-N-(4-methoxyphenyl)propionamide]
194 to 195 | O=C(CCc1oc(-n2cnc3ccccc32)nc1-c1ccc(Cl)cc1)Nc1ccc(CN2CCCCC2)cc1 [Example 88, 3-[2-(1H-benzimidazol-1-yl)-4-(4-chlorophenyl)-5-oxazolyl]-N-{4-[(1-piperidinyl)methyl]phenyl}propionamide]
259 to 263 | O=C(CCc1oc(-n2cnc3ccccc32)nc1-c1ccc(Cl)cc1)Nc1ccc(C(F)(F)F)cc1 [Example 121, 3-[2-(1H-benzimidazol-1-yl)-4-(4-chlorophenyl)-5-oxazolyl]-N-[4-(trifluoromethyl)phenyl]propionamide]
201 to 202 | O=C(CCc1oc(-n2cnc3ccccc32)nc1-c1ccc(Cl)cc1)NCc1cccc(-c2ccccc2)c1 [Example 177, 3-[2-(1H-benzimidazol-1-yl)-4-(4-chlorophenyl)-5-oxazolyl]-N-(3-phenylbenzyl)propionamide]
116 to 117 | CCOP(=O)(CCc1ccc(NC(=O)CCCc2oc(-n3cnc4ccccc43)nc2-c2ccc(Cl)cc2)cc1)OCC

Second part, the compound before the results:

SMILES | melting point [°C]
Cc1cc(C)n(-c2nc(-c3ccc(Cl)cc3)c(CCC(=O)N3CCN(CC4CCN(C)CC4)CC3)o2)n1 [Example 347, 1-{3-[4-(4-chlorophenyl)-2-(3,5-dimethyl-1H-pyrazol-1-yl)-5-oxazolyl]propanoyl}-4-[(1-methyl-4-piperidinyl)methyl]piperazine] | 126 to 127
CS(=O)(=O)CCNC(=O)CCc1oc(-n2cnc3ccccc32)nc1-c1ccc(Cl)cc1 [Example 302, 3-[2-(1H-benzoimidazol-1-yl)-4-(4-chlorophenyl)-5-oxazolyl]-N-[2-(methylsulfonyl)ethyl]propanamide] | 194 to 195
CCOP(=O)(Cc1ccc(NC(=O)CCc2sc(NC(=O)c3ccccn3)nc2-c2ccc(Cl)cc2)cc1)OCC | 184 to 185
COc1ccc(-c2nc(-n3cnc4ccccc43)oc2CCC(=O)N2CCC(O)CC2)cc1 [Example 248, 1-(3-[2-(1H-benzoimidazol-1-yl)-4-(4-methoxyphenyl)-5-oxazolyl]propanoyl)-4-piperidinol] | 161 to 162
O=C(CCc1oc(-n2cnc3ccccc32)nc1-c1ccc(Cl)cc1)NCc1ccc(-c2csnn2)cc1 [Example 150, 3-[2-(1H-benzimidazol-1-yl)-4-(4-chlorophenyl)-5-oxazolyl]-N-[4-(1,2,3-thiadiazol-4-yl)benzyl]propionamide] | 173 to 174
Cc1ccc(Sc2nc(-c3ccc(Cl)cc3)c(CCC(N)=O)o2)cc1 [Example 10, 3-[4-(4-chlorophenyl)-2-[(4-methylphenyl)sulfanyl]-5-oxazolyl]propionamide] | 155 to 156
CCOP(=O)(Cc1ccc(NC(=O)CCc2sc(-n3cnc4ccccc43)nc2C(C)(C)C)cc1)OCC | 155 to 156
COc1cc(CNC(=O)CCc2oc(-n3cnc4ccccc43)nc2-c2ccc(Cl)cc2)cc(OC)c1 [Example 180, 3-[2-(1H-benzimidazol-1-yl)-4-(4-chlorophenyl)-5-oxazolyl]-N-(3,5-dimethoxybenzyl)propionamide] | 198 to 200
CCOP(=O)(Cc1ccc(NC(=O)/C=C/c2sc(-n3cnc4ccccc43)nc2-c2ccccc2)cc1)OCC | 229 to 230
O=C(CCCc1sc(-n2cnc3ccccc32)nc1-c1ccc(Cl)cc1)NCc1cc(Br)ccc1F [Example 216, 4-[2-(1H-benzimidazol-1-yl)-4-(4-chlorophenyl)-5-thiazolyl]-N-(5-bromo-2-fluorobenzyl)butanamide] | 160 to 161
O=C(CCc1oc(-n2cnc3ccccc32)nc1-c1cccc(Cl)c1)N1CCC(O)CC1 [Example 257, 1-{3-[2-(1H-benzoimidazol-1-yl)-4-(3-chlorophenyl)-5-oxazolyl]propanoyl}-4-piperidinol] | 97 to 98
O=C(CCc1oc(-n2cnc3ccccc32)nc1-c1ccc(Cl)cc1)NC1CCC(O)CC1 (stereo not shown) [Example 304, 3-[2-(1H-benzoimidazol-1-yl)-4-(4-chlorophenyl)-5-oxazolyl]-N-(4-hydroxycyclohexyl)propanamide] | 204 to 206
Cc1ccc(CNC(=O)CCc2sc(-n3cnc4ccccc43)nc2-c2ccc(Cl)cc2)cc1 [Example 203, 3-[2-(1H-benzimidazol-1-yl)-4-(4-chlorophenyl)-5-thiazolyl]-N-(4-methylbenzyl)propionamide] | 191 to 192
